Assay [1] deals with B. cereus T spores. As to conditions: cited from earlier work.
Assay [2] concerns B. cereus T spores. As to conditions: from reference (30); cited from earlier work.
For assay [3], the system named is B. cereus T spores. Kind of assay: halo assay on agar plates sprayed with spores, extended incubation. The assay is classed as cell-based, Bacillus cereus. The settings on record: lawns from sprayed B. cereus T spores, incubation for several days, data not shown. The procedure:
Two methods were employed to assay the activity of sublancin 168; a halo assay on plates, and a liquid assay in culture tubes. Both methods used Bacillus cereus T spores as the test organism. 250 mg of spores, prepared as previously described (12), were suspended in 30 mL of distilled water with a glass homogenizer, heat-shocked at 65° C. for 2 hr, centrifuged, and resuspended in 50% ethanol. This suspension was sprayed onto the surface of Medium A-containing agar plates using a Sigma spray unit (St. Louis Mo.). Prior to spraying, 10-20 μL volumes of serial dilutions of purified sublancin were spotted onto the plate. […] growth of the spores, and the diameters of the halos caused by sublancin inhibition were measured, and the minimum amount of peptide that was required to give an observable halo was noted. For the liquid assay, heat-shocked spores were suspended in sterile water to a final concentration of 2 mg/mL, and then added to culture tubes containing 1% BACTO®-tryptone, 0.1 M TRIS®-Pi, pH 6.8. Prior to adding the spores, serial dilutions of sublancin were added to the tubes. The final concentration of spores was 0.1 mg/mL. The tubes were incubated at 37° C. for 3 hr, using sufficient shaking to keep the spores well suspended. […]
The ability of sublancin to inhibit bacterial spore outgrowth was also determined. […]

In the case of `C=C1NC(=O)CC[C@@H](C(=O)O)NC(=O)[C@H](NC(=O)[C@H](CCCCN)NC(=O)[C@@H](N)Cc2c[nH]c3ccccc23)CSC[C@@H](C(=O)N[C@@H]2C(=O)N3CCC[C@H]3C(=O)NCC(=O)N[C@H](C(=O)N[C@H](C(=O)N[C@@H]3C(=O)NCC(=O)N[C@@H](C)C(=O)N[C@@H](CC(C)C)C(=O)N[C@@H](CCC(N)=O)C(=O)N/C(=C/C)C(=O)N[C@H](C(=O)N[C@@H](Cc4ccccc4)C(=O)N[C@@H](CC(C)C)C(=O)N[C@@H](CCC(N)=O)C(=O)N[C@@H]4C(=O)N[C@@H](CC(C)C)C(=O)N[C@H]5C(=O)N[C@@H](CSC4C)C(=O)NC(=O)[C@H](CC(N)=O)N[C@H](C(=O)N[C@@H](CCCCN)C(=O)N[C@H](C(=O)NC(=C)C(=O)N[C@@H](CCCCN)C(=O)O)[C@@H](C)CC)CSC5C)CSC3C)C(C)C)CSC2C)N[C@@H](CC(C)C)C(=O)NC1=O` (stereo partly shown) [subtilin], the “concentration required to inhibit outgrowth of these same spores” value in the assay on B. cereus T spores [1] (B. cereus T spores, from references (27,29)) is recorded as 80 nM. For the same molecule, in the assay on B. cereus T spores [1] (comparison value for subtilin, same methods as reference (27)), the “corresponding ratio, spore outgrowth inhibition versus inhibition of exponentially growing cells” value is given as 30 fold. Also, the “binding and inhibition of spores, reversibility” value in the assay on B. cereus T spores [2] is on record as “irreversibly”. The “appearance of halos after extended incubation of the plates” value in the assay with B. cereus T spores [3] was “remained completely clear”.

The values above are taken from patent US7358076B2, “Sublancin lantibiotic produced by Bacillus subtilis 168” (The University of Maryland, priority 1997, dated 2008).
